Consider 29 compounds from patent publication US5830869A, “Thiadiazole amide MMP inhibitors” (priority 1997, dated 1998).

Sequence of Stromelysin (P08254 100-477): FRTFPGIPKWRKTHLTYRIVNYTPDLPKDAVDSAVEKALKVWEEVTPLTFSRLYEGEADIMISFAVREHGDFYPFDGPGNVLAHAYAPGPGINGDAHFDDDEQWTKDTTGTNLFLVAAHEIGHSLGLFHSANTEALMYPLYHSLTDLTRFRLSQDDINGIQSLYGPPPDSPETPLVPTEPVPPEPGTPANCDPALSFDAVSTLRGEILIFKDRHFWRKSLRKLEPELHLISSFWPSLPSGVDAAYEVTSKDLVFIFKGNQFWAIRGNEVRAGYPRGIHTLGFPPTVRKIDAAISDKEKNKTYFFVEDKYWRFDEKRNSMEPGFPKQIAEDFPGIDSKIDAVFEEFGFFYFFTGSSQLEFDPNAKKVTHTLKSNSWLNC

This test concerns the target Stromelysin (Homo sapiens, UniProt P08254). The test is described as follows: Stromelysin inhibition, in vitro particle concentration fluorescence assay (TABLE 1, MMP Inhibition Constants). It is filed as biochemical. Conditions: fluorescein/biotin substrate, MMP buffer pH 7.5, room temperature, 15 min preincubation with enzyme, 1-3 h with substrate. The procedure:
Inhibitory activity is evaluated in one or more of the MMP enzymes (stromelysin, gelatinase, and collagenase) in vitro using particle concentration fluorescence assay. An inhibitor binds to MMP enzymes which prevents the degradation of a substrate by stromelysin, gelatinase, or collagenase. The substrate has attached to it a fluorescein and a biotin moiety. The intact substrate then binds to an avidin-coated particle via the biotin moiety. Once the particle is washed and dried, a fluorescent signal is generated since the fluorescent group is attached to the particle. Without an inhibitor present, the substrate is degraded by MMP enzymes and the fluorescein group is removed, therefore, no fluorescent signal can be detected. Testing compounds are dissolved in DMSO to the desired concentration, then the solutions are diluted to 1:5 with MMP buffer (50 mM Tris-HCl, pH 7.5; 150 mM NaCl; 0.02% NaN3). Serial two-fold dilutions of each compound are prepared. A concentrated, activated enzyme solution is transferred into each plate of the testing compounds, and the mixture is incubated at room temperature for 15 minutes. Thawed MMP substrate is then added into all plates, and the plates are incubated in the dark for 1-3 hours at room temperature. At this point, the substrate mixture is mixed with 0.1% avidin-coated polystyrene particles. After 15 minutes, the fluorescence values are measured following filtration and washing of the beads. Ki values are then calculated.
Compound `C=CC[C@H](C(=O)Nc1n[nH]c(=S)s1)[C@@H](CC(C)C)NC(=O)OCc1ccccc1` (relative stereo) [Example 55, (R*,S*)-[2-[[(4,5-dihydro-5-thioxo-1,3,4-thiadiazol-2-yl)amino]carbonyl]-1-(2-methylpropyl)-4-pentenyl]carbamic acid phenylmethyl ester] displayed a Ki of 1.91 µM.
`CC(C)C[C@@H](NC(=O)OCc1ccccc1)[C@H](Cc1ccccc1)C(=O)Nc1n[nH]c(=S)s1` (relative stereo) [Example 56, (R*,S*)-[1-[2-[(4,5-dihydro-5-thioxo-1,3,4-thiadiazol-2-yl)amino]-oxo-1(phenylmethyl)ethyl]-3-methylbutyl]carbamic acid phenylmethyl ester]: the inhibitory constant (Ki) is 1.7 µM.
With `O=C(Nc1n[nH]c(=S)s1)[C@@H]1CC[C@H](C(=O)N(Cc2ccccc2)OCc2ccccc2)C1` (relative stereo) [Example 60, cis-N'-(4,5-dihydro-5-thioxo-1,3,4-thiadiazol-2-yl)-N-(phenylmethoxy)-N-(phenylmethyl)-1,3-cyclopentane dicarboxamide], the affinity corresponds to a Ki of 10.3 µM. This Ki is about 6.1-fold higher than that of the compound before.
Regarding `O=C(NC(C(=O)Nc1n[nH]c(=S)s1)c1ccccc1)OCc1ccccc1` (centres unmarked) [Example 1, [2-[(4,5-dihydro-5-thioxo-1,3,4-thiadiazol-2-yl)amino]-2-oxo-1-phenylethyl]carbamic acid, phenylmethyl ester], the inhibition constant Ki amounted to 1.21 µM.
Then `O=C(N[C@@H](CCc1ccccc1)C(=O)Nc1n[nH]c(=S)s1)OCc1ccccc1` [Example 2, (S)-[1-[[(4,5-dihydro-5-thioxo-1,3,4-thiadiazol-2-yl)amino]carbonyl]-3-phenylpropyl]carbamic acid phenylmethyl ester], with 13.9 µM; and `CC[C@H](C)[C@H](NC(=O)OCc1ccccc1)C(=O)Nc1n[nH]c(=S)s1` [Example 3, [S-(R*,R*)]-[1-[[(4,5-dihydro-5-thioxo-1,3,4-thiadiazol-2-yl)amino]carbonyl]-2-methylbutyl[carbamic acid phenylmethyl ester], with 1.24 µM.
Then `CC[C@H](C)[C@H](NC(=O)OCC1c2ccccc2-c2ccccc21)C(=O)Nc1n[nH]c(=S)s1` [Example 4, [S-(R*,R*)]-[1-[[(4,5-dihydro-5-thioxo-1,3,4-thiadiazol-2-yl)amino]carbonyl]-2-methylbutyl]carbamic acid 9H-fluoren-9-yl-methyl ester], with 0.95 µM; and `CCCCC(NC(=O)OCc1ccccc1)C(=O)Nc1n[nH]c(=S)s1` (centres unmarked) [Example 5, [1-[[(4,5-dihydro-5-thioxo-1,3,4-thiadiazol-2-yl)amino]carbonyl]pentyl]carbamic acid phenylmethyl ester], with 2.42 µM; and `CC(C)(C)[C@H](NC(=O)OCc1ccccc1)C(=O)Nc1n[nH]c(=S)s1` [Example 6, (S)-[1-[[(4,5-dihydro-5-thioxo-1,3,4-thiadiazol-2-yl)amino]carbonyl]-2,2-dimethylpropyl]carbamic acid phenylmethyl ester], with 0.53 µM.
For the compound `CCC[C@H](NC(=O)OCc1ccccc1)C(=O)Nc1n[nH]c(=S)s1` [Example 7, (S)-[1-[[(4,5-dihydro-5-thioxo-1,3,4-thiadiazol-2-yl)amino]carbonyl]butyl]carbamic acid phenylmethyl ester], the Ki stood at 2.31 µM.
`O=C(NC(COCc1ccccc1)C(=O)Nc1n[nH]c(=S)s1)OCc1ccccc1` (centres unmarked) [Example 8, [2-[(4,5-dihydro-5-thioxo-1,3,4-thiadiazol-2-yl)amino]-2-oxo-1-[(phenylmethoxy)methyl]ethyl]carbamic acid phenylmethyl ester] showed a Ki of 8.06 µM.
On to `O=C(NC(CSCc1ccccc1)C(=O)Nc1n[nH]c(=S)s1)OCc1ccccc1` (centres unmarked) [Example 9, [2-[(4,5-dihydro-5-thioxo-1,3,4-thiadiazol-2-yl)amino]-2-oxo-1-[[(phenylmethyl)thio]methyl]ethyl]carbamic acid phenylmethyl ester], for which the Ki stood at 9.45 µM.
Compound `CCCCCCCC(NC(=O)OCc1ccccc1)C(=O)Nc1n[nH]c(=S)s1` (centres unmarked) [Example 10, [1-[[(4,5-dihydro-5-thioxo-1,3,4-thiadiazol-2-yl)amino]carbonyl]octyl]carbamic acid phenylmethyl ester] registered an inhibition constant (Ki) of 6.32 µM.
Next, `O=C(N[C@@H](CC1CCCCC1)C(=O)Nc1n[nH]c(=S)s1)OCc1ccccc1` [Example 11]: 6.1 µM; `O=C(N[C@H](C(=O)Nc1n[nH]c(=S)s1)C1CCCCC1)OCc1ccccc1` [Example 12, (S)-[1-(cyclohexyl)-2-[(4,5-dihydro-5-thioxo-1,3,4-thiadiazol-2-yl)amino]-2-oxoethyl]carbamic acid phenylmethyl ester]: 0.84 µM; `CC(=O)NC(C(=O)Nc1n[nH]c(=S)s1)c1ccccc1` (stereo not drawn) [Example 13, α-(acetylamino)-N-(4,5-dihydro-5-thioxo-1,3,4-thiadiazol-2-yl)-benzeneacetamide]: 1.8 µM.
`O=C(CCc1ccccc1)NC(C(=O)Nc1n[nH]c(=S)s1)c1ccccc1` (centres unmarked) [Example 14, N-[2-[(4,5-dihydro-5-thioxo-1,3,4-thiadiazol-2-yl)amino]-2-oxo-1-phenylethyl]benzenepropanamide] displayed a Ki of 0.64 µM.
Then `O=C(CCCCc1ccccc1)NC(C(=O)Nc1n[nH]c(=S)s1)c1ccccc1` (centres unmarked) [Example 15, N-[2-[(4,5-dihydro-5-thioxo-1,3,4-thiadiazol-2-yl)amino]-2-oxo-1-phenylethyl]benzenepentanamide], with 1.38 µM; and `O=C(COCc1ccccc1)NC(C(=O)Nc1n[nH]c(=S)s1)c1ccccc1` (stereo not drawn) [Example 16, N-(4,5-dihydro-5-thioxo-1,3,4-thiadiazol-2-yl)-α-[[(phenylmethoxy)acetyl]amino]benzeneacetamide], with 0.38 µM.
`CC(=O)NCSC(C)(C)C(NC(=O)OCc1ccccc1)C(=O)Nc1n[nH]c(=S)s1` (centres unmarked) [Example 17, (2-(((acetylamino)methyl)thio)-1-(((4,5-dihydro-5--thioxo-1,3,4-thiadiazol-2-yl)amino)carbonyl)-2-methylpropyl)carbamic acid phenylmethyl ester]: the Ki is 1.77 µM.
Then `CC(C)(C)OC(=O)NC(C(=O)Nc1n[nH]c(=S)s1)C(C)(C)/C=C\c1ccccc1` (centres unmarked) [Example 18, (Z)-(1-(((4,5-dihydro-5-thioxo-1,3,4-thiadiazol-2-yl)amino)carbonyl)-2,2-dimethyl-4-phenyl-3-butenyl)carbamic acid 1,1-dimethylethyl ester], with 1.8 µM; and `CC(C)(C)OC(=O)NC(C(=O)Nc1n[nH]c(=S)s1)C(C)(C)CCc1ccccc1` (centres unmarked) [Example 19, (1-(((4,5-dihydro-5-thioxo-1,3,4-thiadiazol-2-yl)amino)carbonyl)-2,2-dimethyl-4-phenylbutyl)carbamic acid 1,1-dimethylethyl ester], with 6.2 µM; and `CC(C)(C)OC(=O)NC(C(=O)Nc1n[nH]c(=S)s1)C(C)(C)/C=C/Cc1ccccc1` (centres unmarked) [Example 20, (E)-(1-(((4,5-dihydro-5-thioxo-1,3,4-thiadiazol-2-yl)amino)carbonyl)-2,2-dimethyl-5-phenyl-3-pentenyl)carbamic acid 1,1-dimethylethyl ester], with 3.06 µM.
For the compound `CC(C)(C)OC(=O)NC(C(=O)Nc1n[nH]c(=S)s1)C(C)(C)CCCc1ccccc1` (centres unmarked) [Example 21, (1-(((4,5-dihydro-5-thioxo-1,3,4-thiadiazol-2-yl)amino)carbonyl)-2,2-dimethyl-5-phenylpentyl)carbamic acid 1,1-dimethylethyl ester], the affinity, expressed as Ki, was 2.72 µM.
In turn, `C=CC(C)(C)C(NC(=O)OC(C)(C)C)C(=O)Nc1n[nH]c(=S)s1` (centres unmarked) [Example 22, (1-(((4,5-dihydro-5-thioxo-1,3,4-thiadiazol-2-yl)amino)carbonyl)-2,2-dimethyl-3-butenyl)carbamic acid 1,1-dimethylethyl ester] showed a Ki of 3.51 µM.
Then `CCC(C)(C)C(NC(=O)OC(C)(C)C)C(=O)Nc1n[nH]c(=S)s1` (centres unmarked) [Example 23, (1-(((4,5-dihydro-5-thioxo-1,3,4-thiadiazol-2-yl)amino)carbonyl)-2,2-dimethylbutyl)carbamic acid 1,1-dimethylethyl ester], with 2.14 µM; and `CC(C)(C)OC(=O)NC(C(=O)Nc1n[nH]c(=S)s1)c1ccccc1` (centres unmarked) [Example 24, [2-[(4,5-dihydro-5-thioxo-1,3,4-thiadiazol-2-yl)amino]-2-oxo-1-phenylethyl]carbamic acid 1,1-dimethylethyl ester], with 1.98 µM; and `CC(C)(C)OC(=O)N[C@@H](Cc1ccc(NC(=O)OCc2ccccc2)cc1)C(=O)Nc1n[nH]c(=S)s1` [Example 25, (S)-[4-[3-[(4,5-dihydro-5-thioxo-1,3,4-thiadiazol-2-yl)amino]-2-[[(1,1-dimethylethoxy)carbonyl]amino]-3-oxopropyl]phenyl]carbamic acid phenylmethyl ester], with 2.48 µM.
Then `CC(C)(C)[C@H](NC(=O)CCc1ccccc1)C(=O)Nc1n[nH]c(=S)s1` [Example 26, (S)-N-[1-[[(4,5-dihydro-5-thioxo-1,3,4-thiadiazol-2-yl)amino]carbonyl]-2,2-dimethylpropyl]benzenpropanamide], with 0.24 µM.

What is called Ki is the dissociation constant of the complex between target and ligand, obtained from inhibition or displacement.
